Measurements: publication PMC11249239 (PLOS ONE, 2024)
Where two headings read alike, the source gives them in different places.

How the values were obtained:
[1] = test system: acetylated α-tubulin; experiment: Western blot, acetylation of α-tubulin; assay type: cell-based; conditions: MCF7 and MDA-MB-231; 1 μM; time dependent
Text: (§1) Following treatment of cells with SP-1-303 over a time course, total or nuclear proteins were extracted and analyzed on 4–20% trisglycine gradient sodium dodecyl sulfate polyacrylamide gel electrophoresis (SDS-PAGE). Subsequently, membranes were probed with antibodies targeting specific proteins in accordance with the manufacturers’ protocols, including ATM (ab78), p-BRCA1 (ab90528), BRCA1 (ab191042), p-p53/S15 (ab1431), acetylated H3K9 (ab12179) from Abcam, as well as p-ATM (# 5883) and p53 (#9282) from Cell Signaling, α-tubulin (T6793) and β-actin (A3854) from Sigma-Aldrich, ER-α (cat# MA1-80216, Invitrogen) and HDAC2 (BML-SA402. Enzo). Protein images were captured using ECL Prime Western Blotting Detection Reagents (Cat#. RPN2232, Amersham) and the Amersham Imager 600. For immunofluorescent analysis, formalin fixed cells were permeabilized with 0.1% Triton X-100 in TBS for 10 minutes at room temperature, followed by blocking with 1% Blocker BSA for 15 minutes at room temperature. Cells were then probed with a phospho-ATM monoclonal antibody (MA5-15185) and DyLight 488 goat anti-mouse IgG secondary antibody at room temperature. Actin was stained with DyLight 554 phalloidin, while nuclei were stained with 4’,6-diamidino-2-phenylindole dye (DAPI). Images were captured using a Nikon Epi Fluorescent microscopy.

[2] = target: HDAC5 (Homo sapiens, UniProt Q9UQL6); experiment: HDAC5 activity inhibition (data not shown); assay type: biochemical; conditions: read-out: IC50 class IIa HDAC5 inhibition
[3] = target: HDAC8 (Homo sapiens, UniProt Q9BY41); experiment: HDAC8 activity inhibition (data not shown); assay type: biochemical
[4] = test system: ER+ BC cells (MCF-7 and T47D); experiment: Cell growth inhibition, ER+ breast cancer cells stated together; assay type: cell-based
Text: Prism-GraphPad software was used to analyze data.

[5] = test system: MDA-MB-231 (TNB) cells; experiment: Cell growth inhibition (CCK8 cytotoxicity assay), MDA-MB-231; assay type: cell-based; conditions: 48 h treatment, read-out: Average EC50 ± SD, cell growth inhibition
[6] = test system: MCF7 cells; experiment: Radiation clonogenic survival assay, MCF7; assay type: cell-based; conditions: 0.3 μM for 24 h then graded γ-radiation, DMSO control 1.5 Gy
Description: Logarithmically growing cells were treated with vehicle (0.1% Dimethyl Sulfoxide) or SP-1-303 (0.3 μM) for 24 h followed by sham or γ-radiation using a Mark-30 irradiator with a 137Cs source at a fixed dose rate of 2.71 Gy/min. Cells were exposed to graded doses at room temperature. After 10–14 days, cells were fixed and stained with crystal violet, and colonies were counted. The surviving fractions of treated cells were normalized using the plating efficiencies of untreated controls. Radiation survival curves were generated by fitting to the single-hit, multitarget model.

[7] = test system: p-ATM/S1981; experiment: Western blot, phosphorylation of ATM; assay type: cell-based; conditions: MCF7 and MDA-MB-231; 1 μM; within 0.5 h
Text: as §1

HDAC5, sequence (Q9UQL6 whole entry, species assumed): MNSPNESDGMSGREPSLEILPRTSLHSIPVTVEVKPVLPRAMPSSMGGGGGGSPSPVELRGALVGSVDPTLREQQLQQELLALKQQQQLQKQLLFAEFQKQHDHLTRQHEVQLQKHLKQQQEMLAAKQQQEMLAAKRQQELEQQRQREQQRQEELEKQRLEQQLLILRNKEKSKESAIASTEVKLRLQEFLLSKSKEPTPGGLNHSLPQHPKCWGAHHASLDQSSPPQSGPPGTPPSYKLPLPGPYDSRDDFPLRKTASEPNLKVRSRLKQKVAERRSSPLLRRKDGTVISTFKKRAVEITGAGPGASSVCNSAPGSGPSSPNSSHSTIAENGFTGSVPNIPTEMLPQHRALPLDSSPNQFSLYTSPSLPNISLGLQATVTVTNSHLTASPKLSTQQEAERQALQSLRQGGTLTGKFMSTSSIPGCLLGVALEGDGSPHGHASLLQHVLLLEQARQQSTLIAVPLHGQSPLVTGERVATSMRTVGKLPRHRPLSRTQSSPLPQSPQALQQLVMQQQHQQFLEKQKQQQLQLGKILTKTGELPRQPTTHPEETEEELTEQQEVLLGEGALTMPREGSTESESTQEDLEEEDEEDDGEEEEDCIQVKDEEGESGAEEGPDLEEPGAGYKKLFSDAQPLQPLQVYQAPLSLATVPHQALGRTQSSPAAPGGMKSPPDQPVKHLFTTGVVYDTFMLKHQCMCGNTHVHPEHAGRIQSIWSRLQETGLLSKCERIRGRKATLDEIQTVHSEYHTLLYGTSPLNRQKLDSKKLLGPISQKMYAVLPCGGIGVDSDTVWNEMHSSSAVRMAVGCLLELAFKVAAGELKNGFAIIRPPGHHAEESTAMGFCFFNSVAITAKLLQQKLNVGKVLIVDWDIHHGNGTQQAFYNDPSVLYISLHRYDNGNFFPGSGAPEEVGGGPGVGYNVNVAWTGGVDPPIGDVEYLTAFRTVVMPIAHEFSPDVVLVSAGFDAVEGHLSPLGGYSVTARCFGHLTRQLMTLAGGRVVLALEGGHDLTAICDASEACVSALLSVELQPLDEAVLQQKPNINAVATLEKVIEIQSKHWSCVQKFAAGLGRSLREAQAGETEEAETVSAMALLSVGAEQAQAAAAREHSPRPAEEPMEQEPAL
HDAC8, sequence (Q9BY41 whole entry, species assumed): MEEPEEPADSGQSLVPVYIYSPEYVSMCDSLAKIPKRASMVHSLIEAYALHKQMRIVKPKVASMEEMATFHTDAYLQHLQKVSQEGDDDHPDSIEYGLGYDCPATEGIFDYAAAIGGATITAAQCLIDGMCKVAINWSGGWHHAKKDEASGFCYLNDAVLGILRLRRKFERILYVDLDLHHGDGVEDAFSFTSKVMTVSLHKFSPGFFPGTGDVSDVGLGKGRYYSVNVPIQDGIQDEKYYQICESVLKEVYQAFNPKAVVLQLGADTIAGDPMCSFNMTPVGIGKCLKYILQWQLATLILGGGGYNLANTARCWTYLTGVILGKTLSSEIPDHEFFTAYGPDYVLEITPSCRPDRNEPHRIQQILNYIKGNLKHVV

**Q.** For `Cc1[nH]c2ccccc2c1C1=C(c2c(C)[nH]c3ccccc23)C(=O)N(CCCCCCC(=O)NO)C1=O` [SP-1-303], which “acetylation of α-tubulin” value [1] is on record?
**A.** The value was “gradually increased”.

**Q.** What about the IC50 [2] of the same molecule?
**A.** Its IC50 is greater than 20 µM.

**Q.** And the IC50 [3]?
**A.** Its IC50 is 310 nM.

**Q.** And the “inhibition of ER+ BC cell growth compared to ER- TNBC cell growth” value [4]?
**A.** Its value is 4-8 fold.

**Q.** What about the “potency in ER+ cell lines relative to SAHA” value ([4]; more potent than SAHA) of the same molecule?
**A.** Its value is 10 fold.

**Q.** And the EC50 ([4]; range over MCF-7 and T47D cells, read-out: effective growth inhibition concentrations (EC50))?
**A.** Its EC50 is 320 to 340 nM.

**Q.** What about the EC50 [5] of the same molecule?
**A.** The EC50 was 1220 ± 243 nM.

**Q.** And the EC50 ([5]; Homo sapiens, MDA-MB-231, 48 h)?
**A.** The EC50 was 1200 nM.

**Q.** What about the “D0, radiation clonogenic survival” value [6] of the same molecule?
**A.** Its value is 1.3 Gy.

**Q.** What about the “phosphorylation of ATM/S1981” value [7] of the same molecule?
**A.** Its value is “significantly enhanced”.
